Test [1] can be described thus: Shn3 3'UTR reporter inhibitors, dose response, cell-based, Clone20 osteoblasts, firefly luciferase, cherry-picked (AID 624132).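 Further: firefly luciferase luminescence from reporter carrying the Shn3 3'UTR in osteoblasts.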 Format: functional.
Test [2] has as its target T1, Streptokinase A (Streptococcus pyogenes serotype M1, UniProt P10520).
T1 sequence (P10520 whole entry): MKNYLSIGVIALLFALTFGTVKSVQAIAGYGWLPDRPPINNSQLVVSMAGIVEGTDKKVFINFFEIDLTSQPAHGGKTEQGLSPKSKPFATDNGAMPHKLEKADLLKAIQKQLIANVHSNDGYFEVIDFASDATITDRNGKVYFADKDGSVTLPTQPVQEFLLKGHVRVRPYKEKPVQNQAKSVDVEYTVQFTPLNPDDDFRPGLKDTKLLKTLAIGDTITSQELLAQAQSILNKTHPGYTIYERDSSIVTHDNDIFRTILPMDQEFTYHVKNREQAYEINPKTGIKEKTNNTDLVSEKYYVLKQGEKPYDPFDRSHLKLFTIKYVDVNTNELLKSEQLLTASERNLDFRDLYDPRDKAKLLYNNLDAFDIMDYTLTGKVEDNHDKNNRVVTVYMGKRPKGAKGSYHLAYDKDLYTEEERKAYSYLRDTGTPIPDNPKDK
As to the kind of experiment: S. pyogenes streptokinase expression inhibitors, potency, dose response, plasminogen activation absorbance, OD405 (AID 1914).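 Further: secreted streptokinase activity via plasminogen activation per viability signal from cell pellet.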 It counts as functional, Streptococcus pyogenes M1 GAS.

For test [3], the system named is Streptococcus sp. 'group A'. As to the kind of experiment: growth inhibition of control SK(-) GAS strain, dose response, counter-screen for streptokinase expression inhibitor project, luminescence, kanamycin, BacTiterGlo, confirmation (AID 1900). Format: functional, organism-based.
For test [4], the system named is Streptococcus. Briefly: Group A Streptococcus viability loss, dose response, counter-screen for streptokinase expression inhibitor project, luminescence, BacTiterGlo (AID 1915).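 Further: potency for reduction of bacterial viability or growth.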 Format: functional, organism-based. As to conditions: read-out: EC50. For orientation: Counterscreens check selectivity or assay interference.
Test [5] deals with T2, Protein RecA (Mycobacterium tuberculosis, UniProt P9WHJ3).
T2 sequence (P9WHJ3 whole entry): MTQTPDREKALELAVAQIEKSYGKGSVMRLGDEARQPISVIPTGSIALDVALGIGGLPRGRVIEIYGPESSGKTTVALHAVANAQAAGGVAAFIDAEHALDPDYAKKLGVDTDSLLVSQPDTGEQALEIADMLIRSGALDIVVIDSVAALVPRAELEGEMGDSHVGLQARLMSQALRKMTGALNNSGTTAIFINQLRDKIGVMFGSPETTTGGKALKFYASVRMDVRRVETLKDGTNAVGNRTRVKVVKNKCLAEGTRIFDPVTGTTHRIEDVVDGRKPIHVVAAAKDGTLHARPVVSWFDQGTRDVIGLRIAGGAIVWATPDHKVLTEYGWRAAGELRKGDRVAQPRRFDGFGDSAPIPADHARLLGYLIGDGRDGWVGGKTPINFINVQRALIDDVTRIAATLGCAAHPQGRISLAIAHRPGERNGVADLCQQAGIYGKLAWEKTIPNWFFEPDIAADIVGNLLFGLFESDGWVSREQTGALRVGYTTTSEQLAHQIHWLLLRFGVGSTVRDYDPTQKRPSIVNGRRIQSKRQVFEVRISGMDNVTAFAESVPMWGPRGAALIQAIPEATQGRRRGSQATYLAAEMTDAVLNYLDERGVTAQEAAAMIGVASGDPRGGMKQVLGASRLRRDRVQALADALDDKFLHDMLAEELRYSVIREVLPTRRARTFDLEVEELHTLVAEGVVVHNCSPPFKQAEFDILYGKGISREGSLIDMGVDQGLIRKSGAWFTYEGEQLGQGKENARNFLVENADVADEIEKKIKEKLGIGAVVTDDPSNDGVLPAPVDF
As to the kind of experiment: Fluorescence Cell-Free Homogeneous Dose Retest to Identify Inhibitors of RecA-Intein Splicing Activity. [Related pubchem assays (depositor defined):AID2097, AID2223, AID489010, AID492950]. Format: functional.

The target in test [6] is T3, Replicative DNA helicase DnaB (Mycobacterium tuberculosis, UniProt P9WMR3).
T3 sequence (P9WMR3 whole entry): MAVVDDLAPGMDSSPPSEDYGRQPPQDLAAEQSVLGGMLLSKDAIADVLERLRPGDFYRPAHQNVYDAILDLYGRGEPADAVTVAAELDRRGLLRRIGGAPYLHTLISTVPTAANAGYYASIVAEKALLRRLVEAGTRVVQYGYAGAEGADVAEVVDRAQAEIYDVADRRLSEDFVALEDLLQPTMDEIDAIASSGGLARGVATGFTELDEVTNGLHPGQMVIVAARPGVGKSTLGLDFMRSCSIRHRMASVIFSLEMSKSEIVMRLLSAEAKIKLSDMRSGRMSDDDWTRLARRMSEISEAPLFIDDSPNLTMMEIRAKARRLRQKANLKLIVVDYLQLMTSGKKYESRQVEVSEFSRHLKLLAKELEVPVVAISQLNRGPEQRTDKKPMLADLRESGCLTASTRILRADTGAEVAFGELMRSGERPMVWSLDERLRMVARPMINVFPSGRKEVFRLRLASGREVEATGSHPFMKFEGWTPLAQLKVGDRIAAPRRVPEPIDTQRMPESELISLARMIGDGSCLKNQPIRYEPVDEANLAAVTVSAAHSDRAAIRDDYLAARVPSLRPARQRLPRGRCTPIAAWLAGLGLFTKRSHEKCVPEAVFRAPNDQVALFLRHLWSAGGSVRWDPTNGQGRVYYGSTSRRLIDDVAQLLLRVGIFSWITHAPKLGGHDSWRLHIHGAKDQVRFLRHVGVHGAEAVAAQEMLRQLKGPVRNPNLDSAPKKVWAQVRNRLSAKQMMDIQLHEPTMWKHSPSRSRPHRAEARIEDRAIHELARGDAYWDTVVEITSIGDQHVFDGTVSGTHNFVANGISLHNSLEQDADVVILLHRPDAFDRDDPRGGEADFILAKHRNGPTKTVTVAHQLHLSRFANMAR
As to the kind of experiment: DnaB intein splicing inhibitors, dose response, biochemical, cell-free fluorescence (AID 449749). It counts as functional.

Test [7] can be described thus: Luminescence Cell-Based Dose Retest to Confirm Inhibitors of Cancer Stem Cells. [Related pubchem assays (depositor defined):AID2717, AID2721]. As to conditions: Homo sapiens. It counts as functional.
Test [8] has as its target T4, Corticotropin-releasing factor receptor 2/Corticotropin-releasing factor-binding protein (Homo sapiens, UniProt P24387+Q13324).
T4 sequence (Q13324 whole entry): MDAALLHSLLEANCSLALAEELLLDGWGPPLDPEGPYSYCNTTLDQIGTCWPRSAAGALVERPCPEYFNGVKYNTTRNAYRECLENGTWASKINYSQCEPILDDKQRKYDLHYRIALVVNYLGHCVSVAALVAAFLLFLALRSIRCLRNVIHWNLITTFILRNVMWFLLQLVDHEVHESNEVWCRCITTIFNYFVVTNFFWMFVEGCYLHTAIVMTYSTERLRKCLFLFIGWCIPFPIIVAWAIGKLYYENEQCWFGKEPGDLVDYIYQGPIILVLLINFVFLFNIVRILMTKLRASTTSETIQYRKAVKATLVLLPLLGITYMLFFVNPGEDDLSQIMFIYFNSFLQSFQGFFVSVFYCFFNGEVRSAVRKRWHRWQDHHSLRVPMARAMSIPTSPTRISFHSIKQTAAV
T4 sequence (P24387 whole entry): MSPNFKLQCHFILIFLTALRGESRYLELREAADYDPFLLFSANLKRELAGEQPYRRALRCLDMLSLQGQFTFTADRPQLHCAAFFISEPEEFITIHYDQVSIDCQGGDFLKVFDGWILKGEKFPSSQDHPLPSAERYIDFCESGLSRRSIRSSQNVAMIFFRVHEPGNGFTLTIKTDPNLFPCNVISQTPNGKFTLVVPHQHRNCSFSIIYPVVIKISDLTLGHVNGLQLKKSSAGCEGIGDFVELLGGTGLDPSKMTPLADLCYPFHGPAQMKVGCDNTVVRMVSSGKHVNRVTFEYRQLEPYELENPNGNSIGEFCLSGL
As to the kind of experiment: activators of CRF receptor 2 with binding protein – uHTS hits, confirmation (AID 602473). It counts as functional. The conditions noted are these: read-out: EC50_Mean.

Test [9] has as its target Cytochrome P450 2D6 (Homo sapiens, UniProt P10635).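 Further: CYP2D6 member of a cytochrome P450 panel assay.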
Test [10] deals with T5, Heat shock factor protein 1 (Mus musculus, UniProt P38532).
T5 sequence (P38532 whole entry): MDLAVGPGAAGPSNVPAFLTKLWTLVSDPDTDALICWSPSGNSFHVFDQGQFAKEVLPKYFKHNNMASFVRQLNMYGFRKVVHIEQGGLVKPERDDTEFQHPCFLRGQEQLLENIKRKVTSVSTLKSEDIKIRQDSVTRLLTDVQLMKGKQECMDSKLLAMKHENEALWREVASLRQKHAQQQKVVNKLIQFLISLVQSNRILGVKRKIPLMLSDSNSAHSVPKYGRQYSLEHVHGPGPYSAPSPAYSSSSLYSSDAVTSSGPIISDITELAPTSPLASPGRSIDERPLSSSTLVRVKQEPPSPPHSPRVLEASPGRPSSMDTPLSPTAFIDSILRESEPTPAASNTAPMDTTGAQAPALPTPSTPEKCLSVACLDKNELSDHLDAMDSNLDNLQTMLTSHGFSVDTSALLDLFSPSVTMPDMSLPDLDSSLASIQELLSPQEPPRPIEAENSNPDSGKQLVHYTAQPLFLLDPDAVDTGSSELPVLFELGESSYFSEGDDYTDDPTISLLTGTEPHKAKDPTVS
Briefly: inhibition of MG132-induced HSE-luciferase signal, confirmation, cell-based, NIH3T3, luminescence, dose retest (AID 2382).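 Further: NIH3T3 fibroblasts with HSF1-driven luciferase reporter stressed by proteasome inhibitor MG132; luminescence from HSF1-driven luciferase expression after 8 hours of MG132 stress.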 Format: functional.

For 22 compounds, AC50 and EC50 results are on record in ChEMBL document CHEMBL1201862, “PubChem BioAssay data set” (2004).

The source made the active and inactive calls. For most assays here, no stated cut-off is given here; in the data, actives have a measured EC50 and inactives only a lower limit.

By AC50 is commonly meant the concentration at which the activity in the assay is half-maximal.

Cytochrome P450 2D6, sequence (P10635 whole entry): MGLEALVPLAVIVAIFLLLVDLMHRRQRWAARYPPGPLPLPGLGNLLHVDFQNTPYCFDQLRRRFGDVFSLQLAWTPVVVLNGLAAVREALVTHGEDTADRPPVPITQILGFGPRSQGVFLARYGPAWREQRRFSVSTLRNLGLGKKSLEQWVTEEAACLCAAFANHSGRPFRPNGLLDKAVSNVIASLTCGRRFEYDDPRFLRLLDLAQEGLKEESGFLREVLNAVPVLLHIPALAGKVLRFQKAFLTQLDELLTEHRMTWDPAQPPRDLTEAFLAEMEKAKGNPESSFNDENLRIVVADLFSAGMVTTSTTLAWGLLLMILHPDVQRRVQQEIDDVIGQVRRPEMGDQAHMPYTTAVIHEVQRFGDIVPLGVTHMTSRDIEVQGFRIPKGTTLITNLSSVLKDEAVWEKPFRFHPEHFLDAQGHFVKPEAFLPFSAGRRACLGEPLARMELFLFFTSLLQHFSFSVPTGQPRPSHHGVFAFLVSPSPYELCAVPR

For `C[C@]12CC[C@@H](O)C[C@@H]1CC[C@@H]1[C@@H]2CC[C@]2(C)C(=O)CC[C@@H]12` [ANDROSTERONE], in test [1], the AC50 was 40.1 µM (active).
In the case of `Cc1cc(C)c(-c2cc(NC(=O)COC(=O)c3ccc(CO)cc3)n(-c3ccccc3)n2)cc1C`, the values for the EC50 in test [2], in test [3] and in test [4] were 48.4 µM (active), 5.49 µM (active) and 32.4 µM (active), respectively.
In the case of `CC(=O)NC(=S)c1c(N)n(Cc2ccccc2)c(=O)n(C)c1=O`, the EC50 in test [5] is > 380 µM (inconclusive). In addition, the AC50 in [6] was > 380 µM (inactive).
On to `O=C(/C=C/c1ccco1)NC(=S)Nc1ccc(N2CCOCC2)c(Cl)c1`, for which the EC50 in [2] is > 150 µM (not active); in test [3], 109 µM (active); in test [4], 54.4 µM (active).
Consider `COc1ccc(-c2csc(Nc3ccc(O)cc3)n2)cc1`, for which the EC50 in [5] was 123 µM (active). The concentration at half-maximal activity (AC50) in test [6] is 37.2 µM (active).
Regarding `Oc1nc(CN2CC=C(c3ccccc3)CC2)nc2scc(-c3ccccc3)c12`, the EC50 was > 150 µM (not active) in test [2], 7.76 µM (active) in test [3] and 50.3 µM (active) in test [4]. In [7], the AC50 is 2.56 µM (active).
As to `O=C(Nc1ccccc1)c1ccccc1NC(=O)C(F)(F)F`, the EC50 in test [8] is > 53 µM (inactive).
For `O=C(Nc1ccc(Cl)c(Cl)c1)N1CC=C(c2ccccc2)CC1`, the EC50 is 11.9 µM (active) in test [2], 9.92 µM (active) in test [3] and 21 µM (active) in test [4].
As to `Cc1cc(NC(=O)CC2CCCC2)n(-c2nc3ccccc3[nH]2)n1`, the EC50 in test [2] is > 150 µM (not active); in test [3], 6.41 µM (active); in [4] it was > 150 µM (not active).
With `CN1CCN(c2ncc3nc(-c4ccccc4)c(=O)n(CCc4ccccc4)c3n2)CC1`, the AC50 in test [9] was 39.8 µM (inconclusive).
Consider `CC1=NNC(=O)C1C(c1cccc(O)c1)C(C#N)C#N` (stereo not drawn), for which the EC50 in test [5] was 12.7 µM (active). The AC50 in test [6] is 28.3 µM (active).
The like results for `CCN(CC)S(=O)(=O)c1ccc(NN=C(C#N)C#N)cc1` were, in that order, 15 µM (active) and 5.03 µM (active).
`c1ccc(-c2oc3ncnc(NCCCn4ccnc4)c3c2-c2ccccc2)cc1`: the EC50 was > 150 µM (not active) in [2], 23.4 µM (active) in test [3] and > 150 µM (not active) in test [4].
For the compound `Cc1cc(C(=O)c2ccccc2)c(NC(=O)CCl)s1`, in test [5], the EC50 was 2.83 µM (active). Besides, the AC50 in test [6] is 14.2 µM (active).
`CCOc1cc(C(c2c(C)n[nH]c2O)c2c(C)n[nH]c2O)cc(Br)c1OC`: the EC50 in [5] was 0.231 µM (active); in test [10], > 195 µM (not active). Also, the AC50 in [6] is 0.417 µM (active).
For the compound `Cn1c(-[n+]2c(-c3ccccc3)cc(-c3ccccc3)cc2-c2ccccc2)nc2c([N+](=O)[O-])cccc21`, the EC50 in test [5] was 15.3 µM (active). Also, the concentration at half-maximal activity (AC50) in test [6] was 15.3 µM (active).
For `COc1ccc(C(=O)NNC(=O)c2cccc(S(=O)(=O)N3CCOCC3)c2)cc1`, the AC50 in test [1] is 23.2 µM (active).
With `Cn1c(=O)c(C(=O)COc2ccc(C#N)cc2)c(N)n(Cc2ccccc2)c1=O`, in test [8], the EC50 was 10.9 µM (active).
Turning to `Cc1cccc(Cc2cnc(NC(=O)c3ccc(C)o3)s2)c1`, the EC50 was > 150 µM (not active) in test [2], 16.6 µM (active) in test [3] and > 150 µM (not active) in [4].
Consider `COc1ccc2cc(C(=O)NCc3ccccc3)/c(=N/c3ccc(C(=O)O)cc3)oc2c1`, for which the figures for the EC50 in [2], in [3] and in test [4] were > 150 µM (not active), 10.2 µM (active) and 22.4 µM (active), respectively.
As for `CC(=O)c1c(C)c2c(n1CCN(C)C)CCCC2`, the EC50 in [8] was 2.74 µM (active).
In the case of `O=C(NC1C(=O)NNC1c1ccc(Cl)cc1)c1ccc(F)cc1` (stereo not drawn), the EC50 in test [5] was 4.94 µM (active). Moreover, in test [6], the AC50 was 13.1 µM (active).
